Results as given in the NIST ThermoML archive (doi:10.1016/j.fluid.2004.12.009).

Columns and labels:
[1] = xn = mol fraction of the nth substance listed; details: 298.15 K, Drop volume
[2] = 298.15 K, Drop volume

CCCOC(=O)CC [propyl propanoate] + Cc1ccc(C)cc1
[1]
Details	surface tension liquid-gas [mN/m]
x1 = 0.061	27.46
x1 = 0.0898	27.35
x1 = 0.1545	27.09
x1 = 0.2219	26.82
x1 = 0.2558	26.69
x1 = 0.3257	26.42
x1 = 0.388	26.18
x1 = 0.4204	26.07
x1 = 0.4851	25.83
x1 = 0.5211	25.71
x1 = 0.5809	25.5
x1 = 0.6209	25.38
x1 = 0.6846	25.17
x1 = 0.7187	25.07
x1 = 0.7976	24.82
x1 = 0.8562	24.62
x1 = 0.8779	24.56
x1 = 0.9544	24.28

CCCOC(=O)CC [propyl propanoate]
Details	surface tension liquid-gas [mN/m]
[2]	24.1

CCCOC(=O)CC [propyl propanoate] + Cc1cccc(C)c1
[1]
Details	surface tension liquid-gas [mN/m]
x1 = 0.0621	27.69
x1 = 0.0989	27.5
x1 = 0.1636	27.19
x1 = 0.2293	26.88
x1 = 0.2608	26.74
x1 = 0.3264	26.45
x1 = 0.4215	26.07
x1 = 0.6132	25.34
x1 = 0.7485	24.86
x1 = 0.7827	24.74
x1 = 0.8542	24.52
x1 = 0.8896	24.41

Cc1ccc(C)cc1 [1,4-dimethylbenzene]
Details	surface tension liquid-gas [mN/m]
[2]	27.7

CCCOC(=O)CC [propyl propanoate] + Cc1ccccc1C
[1]
Details	surface tension liquid-gas [mN/m]
x1 = 0.0587	28.88
x1 = 0.0915	28.66
x1 = 0.1548	28.27
x1 = 0.2236	27.85
x1 = 0.2531	27.68
x1 = 0.3216	27.3
x1 = 0.3862	26.95
x1 = 0.4212	26.77
x1 = 0.4836	26.45
x1 = 0.517	26.29
x1 = 0.5814	25.98
x1 = 0.6503	25.64
x1 = 0.6829	25.49
x1 = 0.7507	25.17
x1 = 0.7823	25.03
x1 = 0.8909	24.54
x1 = 0.9636	24.23

Cc1cccc(C)c1 [1,3-dimethylbenzene]
Details	surface tension liquid-gas [mN/m]
[2]	28.03

Cc1ccccc1C [1,2-dimethylbenzene]
Details	surface tension liquid-gas [mN/m]
[2]	29.27
